Laboratory results as given in article PMC6643344, “Studying the Possibilities of Using 2-Halogen-Substituted Acetamides As Acyl Donors in Penicillin Acylase-Catalyzed Reactions” (Acta Naturae, 2019).

Molecular target: T1, penicillin acylase from Escherichia coli (Escherichia coli, UniProt P06875)
T1 construct: gene pac; free enzyme in solution; mature alpha/beta heterodimer cut from one precursor (known biology)
Test: first-order inactivation, residual activity with NIPAB at […] nm
Format: biochemical
Conditions: inactivation rate constant (given as kin x 10^4) at 0.1 M compound; 0.1 M potassium phosphate pH 7.5; 25°C; active site, turnover-linked; also a substrate

T1 sequence (P06875 27-235, looked up): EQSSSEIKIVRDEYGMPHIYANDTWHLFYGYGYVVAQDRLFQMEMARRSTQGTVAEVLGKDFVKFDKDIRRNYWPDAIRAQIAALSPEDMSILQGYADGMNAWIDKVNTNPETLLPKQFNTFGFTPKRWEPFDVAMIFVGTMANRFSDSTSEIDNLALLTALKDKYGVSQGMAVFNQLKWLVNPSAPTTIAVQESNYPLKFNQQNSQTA
T1 sequence (P06875 290-846, looked up): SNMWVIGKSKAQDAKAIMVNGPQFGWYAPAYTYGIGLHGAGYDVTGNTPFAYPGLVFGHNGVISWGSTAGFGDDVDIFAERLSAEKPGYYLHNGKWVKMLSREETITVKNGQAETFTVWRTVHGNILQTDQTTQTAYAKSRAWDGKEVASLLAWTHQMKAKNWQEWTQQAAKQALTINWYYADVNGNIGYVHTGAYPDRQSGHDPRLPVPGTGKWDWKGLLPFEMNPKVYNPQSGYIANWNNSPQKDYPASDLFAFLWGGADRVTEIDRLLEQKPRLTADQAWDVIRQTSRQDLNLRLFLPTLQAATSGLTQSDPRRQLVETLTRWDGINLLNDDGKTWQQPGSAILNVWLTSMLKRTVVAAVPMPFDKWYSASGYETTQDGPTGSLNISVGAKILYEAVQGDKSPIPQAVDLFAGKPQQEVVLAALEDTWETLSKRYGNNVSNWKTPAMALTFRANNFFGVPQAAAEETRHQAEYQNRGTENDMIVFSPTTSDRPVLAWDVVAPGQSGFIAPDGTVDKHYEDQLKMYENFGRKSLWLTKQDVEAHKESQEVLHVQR

| Structure (SMILES) | kin.10^4, min^-1 |
| --- | --- |
| NC(=O)CBr [2-bromoacetamide] | 47 ± 2 min^-1 |
| NC(=O)CCl [2-chloroacetamide] | 1.1 ± 0.1 min^-1 |
| NC(=O)CI [2-iodoacetamide] | 364 ± 34 min^-1 |
